In article PMC12598866, “A Comparative Study of Virucidal and Virustatic Multivalent Entry Inhibitors” (The Journal of Physical Chemistry. B, 2025):
Like-named read-outs stand apart in the source and are kept apart here.

How the values were obtained:
HSV-1 [1] = system: HSV-1
HSV-2 [2] = test: HSV-2 inhibition assay (plaque reduction on Vero cells, pretreatment); assay type: cell-based, herpes simplex virus type 2; conditions: for IC50: Human alphaherpesvirus 2, Vero, dose–response, Vero cells; for IC99: HSV-2 inhibition, concentration intended to inhibit infection by at least 90 and 99%
Method: The inhibitory effect of compounds on HSV-2 was evaluated by plaque reduction assay. Vero cells were plated 24 h before the experiment in 24-well plates with a seeding density of 10^5 cells/well. Serial dilutions of compounds in DMEM medium (2% FBS, 1% P/S) were prepared, followed by the addition of aliquots of HSV-2 such that the final titer of the virus was 200 pfu/mL (with MOI = 0.0005). Compounds/virus mixtures were incubated at 37 °C for 1 h and added to the cells (250 μL/well). Followed by incubation at 37 °C for 1 h, the viral inoculum was removed. The cells were overlaid with DMEM medium containing 1.2% methylcellulose, 2% FBS, and 1% P/S. After 48 h of incubation at 37 °C, 5% CO2, the cells were fixed and stained with 0.1% crystal violet in 20% ethanol. Finally, the plaques were counted. Each group of experiments in the inhibition assay was performed in triplicate. The concentration producing a 50% reduction in plaque formation was determined using Prism 10 software (GraphPad Software, USA) by comparing compound-treated and untreated cells. Infectivity was calculated as the number of plaques in compound-treated cells/number of plaques in untreated cells × 100%.

Flu B = test: Influenza inhibition assay (ICC on MDCK cells); assay type: cell-based; conditions: dose–response
H1N1N09 = test: Influenza inhibition assay (ICC on MDCK cells); assay type: cell-based, Influenza A/Netherlands/602/2009 (H1N1); conditions: Influenza A virus, dose–response
[3] = Cytotoxicity assay on Vero cells (MTS); assay type: cell-based; conditions: African green monkey
Method: Cytotoxicity assay was performed on the Vero cell line with the MTS assay. The cells were plated for 24 h in DMEM medium containing 10% FBS and 1% penicillin/streptomycin with a seeding density of 2 × 10^4 per well in a 96-well plate. […] Then, the cells were washed with PBS twice, followed by the addition of 20 μL MTS reagents together with 80 μL DMEM medium. They were then incubated at 37 °C for 4 h. The cell viability was checked by absorbance at 490 nm with a plate reader.

HSV-2 [4] = test: Growth of viruses in the presence of compounds (posttreatment), HSV-2; assay type: cell-based, herpes simplex virus type 2; conditions: posttreatment condition, Vero cells
H3N2 = test: Influenza inhibition assay (ICC on MDCK cells, pretreatment); assay type: cell-based; conditions: Influenza A virus
H1N1 clinical = test: Influenza inhibition assay (ICC on MDCK cells); assay type: cell-based; conditions: Influenza A virus, dose–response
HSV-1 [5] = test: HSV-1 inhibition assay (plaque reduction on Vero cells); assay type: cell-based, herpes simplex virus type 1; conditions: Human alphaherpesvirus 1, dose–response
Method: The inhibitory effect of compounds on HSV-1 was evaluated by plaque reduction assay. Vero cells were plated 24 h before the experiment in 24-well plates at a density of 10^5 cells/well. Serial dilutions of compounds in DMEM medium (2% FBS, 1% P/S) were prepared, followed by the addition of aliquots of HSV-1 such that the final titer of the virus is […] (with MOI = 0.0005). Compounds/virus mixtures were incubated at 37 °C for 1 h and added to the cells (250 μL/well). Followed by incubation at 37 °C for 1 h, the viral inoculum was removed. The cells were overlaid with DMEM medium containing 1.2% methylcellulose, 2% FBS, and 1% P/S. After 3 days of incubation at 37 °C, 5% CO2, the cells were fixed and stained with 0.1% crystal violet in 20% ethanol, and plaques were counted. Each group of experiments in the inhibition assay was performed in triplicate. The concentration producing a 50% reduction in plaque formation was determined using the Prism 10 software (GraphPad Software, USA) by comparing compound-treated and untreated cells. Infectivity was calculated as the number of plaques in compound-treated cells/number of plaques in untreated cells × 100%.

HSV-2 [6] = test: HSV-2 inhibition assay (plaque reduction on Vero cells, pretreatment); assay type: cell-based, herpes simplex virus type 2; conditions: Human alphaherpesvirus 2, Vero, pretreatment condition
[7] = CMC assay (conductivity method); assay type: physicochemical; conditions: in water
Method: The CMC of antiviral compounds was measured by the conductivity method. Antiviral compounds were diluted into water at different concentrations, and the conductivity (μS/cm) was measured at each concentration with a conductivity meter (Mettler Toledo, Switzerland). The CMC was identified as the point on the conductivity-concentration plot where the slope changed.

HSV-2 [8] = test: HSV-2 virucidal assay; assay type: cell-based, herpes simplex virus type 2; conditions: virucidal titration at 90–99% viral inhibition concentration, Vero cells
[9] = Partition coefficient octanol/water (UV-vis); assay type: physicochemical
Method: UV–vis spectroscopy was employed first to determine the correct dilution of all compounds. The seven compounds in this study were B3C11SO4, B3C11SO3, B3C6SO3, B3C6SO4, C4C11SO4, C4C11SO3, and C4C3SO3. The protocol is the same for all the compounds: in the beginning, all compounds were dissolved in water at a concentration of 1 mg/mL. The solution was put into a quartz cuvette and then into the UV–vis spectrometer, where the absorbance from wavelengths 600 to 190 nm was investigated. All of the samples presented a peak in absorbance around 200 nm. The samples were diluted further until the absorbance peak reached values near 0.90.
A biphasic solution composed of 1.5 mL of a water solution of antiviral +1.5 mL of octanol was thoroughly mixed for 60 min. After the mixing, the two phases were separated by centrifugation for 1 min using a benchtop centrifuge at 5000 rpm. The water phase saturated in octanol and the octanol phase saturated with water were extracted and characterized by UV–vis spectrometry.
The partition coefficient (log P) was then calculated using formula : logP=log(Absorbanceofoctanolphase/Absorbanceofwaterphase) 1

BSA = target: T1, BSA (Bos taurus, UniProt P02769); test: Isothermal titration calorimetry with BSA; assay type: binding, bovine; conditions: ITC, H2O
T1 construct: purchased Sigma-Aldrich

[10] = Cytotoxicity assay for MDCK (MTT); assay type: cell-based; conditions: dog, MDCK cells
Method: MTT assay was used to evaluate the cytotoxicity on MDCK cells. 10^4 cells per well were seeded in a 96-well plate 1 day before the assay. A dose range of each drug (from 4.11 μM to 1000 μM) was added to the cells in serum-free medium for MDCK cells. The antivirals were incubated on the cells for 24 h at 37 °C. After incubation, the cells were washed, and MTT reagent (Promega) was added to the cells for 4 h at 37 °C according to the manufacturer’s instructions. The cells were then washed, and 50 μL of DMSO was added to free the reagent. Subsequently, the absorbance was read at 579 nm. Percentages of viability were calculated by comparing the absorbance in treated wells and untreated conditions.

[11] = target: glycoprotein D (gD) of HSV; test: Isothermal titration calorimetry with glycoprotein D; assay type: binding; conditions: ITC, 25°C
Method: Isothermal titration calorimetry (ITC) experiments were conducted using ITC200 instruments (GE Healthcare, USA) equipped with a 200 μL sample cell and a 40 μL syringe. Thirteen injections were applied. The first data point was excluded. BSA protein and viral protein concentrations in the cell were approximately 50 μM and 1 mg/mL, respectively, and ligand concentrations in the syringe were roughly 2 mM. They were centrifuged at 2000g for 2 min to remove bubbles. The titration was performed at 25 or 37 °C, with data analyzed using MicroCal PEAQ ITC software. Baseline correction was applied, and Nitpic/Sedphat was used for automated integration to ensure precise binding parameter determination.

HSV-2 [12] = system: HSV-2; design: method as in Zhu et al., 2024 (citation number not given); conditions: earlier paper of the authors on benzene-core MEIs; ref Zhu et al., 2024 (citation number not given); read-out: IC50 against HSV-2; cited from earlier work
[13] = dose–response, read-out: IC50 H3N2
[14] = pretreatment condition, read-out: pretreatment IC50, H3N2

T1 sequence (P02769 25-607): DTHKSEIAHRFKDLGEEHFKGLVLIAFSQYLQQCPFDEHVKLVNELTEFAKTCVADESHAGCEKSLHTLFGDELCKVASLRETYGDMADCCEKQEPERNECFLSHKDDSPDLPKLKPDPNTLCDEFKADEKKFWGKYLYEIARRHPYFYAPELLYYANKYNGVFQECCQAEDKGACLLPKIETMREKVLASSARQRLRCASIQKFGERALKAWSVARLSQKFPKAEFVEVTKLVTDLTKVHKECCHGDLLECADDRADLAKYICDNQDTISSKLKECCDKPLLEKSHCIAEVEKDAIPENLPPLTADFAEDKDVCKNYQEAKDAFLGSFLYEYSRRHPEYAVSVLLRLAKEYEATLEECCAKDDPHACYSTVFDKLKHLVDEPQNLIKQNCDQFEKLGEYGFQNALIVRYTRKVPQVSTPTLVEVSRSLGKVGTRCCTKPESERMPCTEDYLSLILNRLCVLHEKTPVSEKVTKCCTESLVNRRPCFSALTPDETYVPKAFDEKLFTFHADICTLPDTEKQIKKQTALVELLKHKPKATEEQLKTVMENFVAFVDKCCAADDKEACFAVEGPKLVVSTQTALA

| Structure (SMILES) | Virucidal activity, V-1 (HSV-1 [1]) | IC50 (HSV-2 [2]) [µM] | IC50 (Flu B) [µM] | IC50 (H1N1N09) [µM] | CC50 at 48 h [3] [µM] | IC50 (HSV-2 [4]; Human alphaherpesvirus 2, Vero) [µM] | IC50 (H3N2; [13]) [µM] | IC50 (H3N2; [14]) [µM] | IC50 (H1N1 clinical) [µM] | IC50 (HSV-1 [5]) [µM] | IC50 (HSV-2 [6]) [µM] | CMC [7] [µM] | Virucidal activity, HSV-2 (HSV-2 [8]) | logP [9] | N (binding sites, BSA) (BSA; 25 °C (Table 5)) | ΔG (BSA) (BSA; 25 °C (Table 5)) | ΔH (BSA) (BSA; 25 °C (Table 5)) | –ΔTS (BSA) (BSA; 25 °C (Table 5)) | CC50 at 24 h [10] [µM] | Kd [11] [µM] | other results |
| --- | --- | --- | --- | --- | --- | --- | --- | --- | --- | --- | --- | --- | --- | --- | --- | --- | --- | --- | --- | --- | --- |
| O=S(=O)(O)CCCCCCSCc1cc(CSCCCCCCS(=O)(=O)O)cc(CSCCCCCCS(=O)(=O)O)c1 [B3C6SO3] | S | 487.3 ± 2.19 | > 1000 | > 1000 | > 1000 | 180 | > 1000 | > 1000 | > 1000 | 502.3 ± 2.15 | 487 | 882.2 ± 18.9 | S | -2.39 | no binding | no binding | no binding | no binding | > 1000 | 14.2 | IC50 (HSV-2 [4]): 181 ± 2.06 µM; K d (BSA) (BSA; 25 °C (Table 5)): no binding |
| O=S(=O)(O)OCCCCCCSCc1cc(CSCCCCCCOS(=O)(=O)O)cc(CSCCCCCCOS(=O)(=O)O)c1 [B3C6SO4] |  | 52.9 ± 1.9 | > 1000 | 346.9 ± 1.94 | > 1000 | 56.9 ± 1.48 | > 1000 | 346.9 ± 1.94 | > 1000 | 208 ± 31.4 | 52.9 ± 1.9 | 1390 ± 45.6 |  | -1.79 |  |  |  |  | > 1000 | 28.1 | IC99 (HSV-2 [2]): 1328 ± 1.9 µM; IC50 (HSV-2 [12]): 78.4 µM; -∆TS (BSA) (BSA; 25 °C (Table S3)): 7.2 kcal/mol; Kd (BSA; 25 °C (Table S3)): 7.27 µM; N (BSA) (BSA; 25 °C (Table S3)): 1.69; ∆G (BSA) (BSA; 25 °C (Table S3)): -7.29 kcal/mol; ∆H (BSA) (BSA; 25 °C (Table S3)): -14.5 kcal/mol; -∆TS (BSA) (BSA; 37 °C (Table S3)): 0.938 kcal/mol; Kd (BSA; 37 °C (Table S3)): 1.4 µM; N (BSA) (BSA; 37 °C (Table S3)): 1.3; ∆G (BSA) (BSA; 37 °C (Table S3)): -7.99 kcal/mol; ∆H (BSA) (BSA; 37 °C (Table S3)): -8.93 kcal/mol |
| O=S(=O)(O)CCCSCc1cc2c(cc1CSCCCS(=O)(=O)O)OCCOCCOc1cc(CSCCCS(=O)(=O)O)c(CSCCCS(=O)(=O)O)cc1OCCOCCO2 [C4C3SO3] | S | 173.4 ± 1.1 | > 1000 | > 1000 | > 1000 | 69.1 ± 1.01 | > 1000 | > 1000 |  | 551.9 ± 2 | 173.4 ± 1.1 | 462.69 ± 57 | S | -2.45 | 0.5 | –5.73 kcal/mol | –7.34 kcal/mol | 1.61 kcal/mol | > 1000 |  | IC99 (HSV-2 [2]): 446 ± 1.1 µM; Kd (BSA; 25 °C (Table 5), read-out: K d (BSA)): 63 µM; -∆TS (BSA) (BSA; 25 °C (Table S3)): 1.61 kcal/mol; N (BSA) (BSA; 25 °C (Table S3)): 0.5; ∆G (BSA) (BSA; 25 °C (Table S3)): -5.73 kcal/mol; ∆H (BSA) (BSA; 25 °C (Table S3)): -7.34 kcal/mol; -∆TS (BSA) (BSA; 37 °C (Table S3)): 24.6 kcal/mol; Kd (BSA; 37 °C (Table S3)): 52.1 µM; N (BSA) (BSA; 37 °C (Table S3)): 0.397; ∆G (BSA) (BSA; 37 °C (Table S3)): -6.08 kcal/mol; ∆H (BSA) (BSA; 37 °C (Table S3)): -30.6 kcal/mol |
